Source: patent US20230192617A1, “AZABICYCLIC(THIO)AMIDES AS FUNGICIDAL COMPOUNDS” (Bayer CropScience Aktiengesellschaft, priority 2020, published 2023)

Tests used:
Septoria tritici = assay: B-9. Septoria tritici in vitro cell test; type: cell-based; conditions: Zymoseptoria tritici, 168 h; 20 ppm of active ingredient; 7 days incubation; liquid culture, absorbance; read-out: efficacy (inhibition of fungal growth)
Outline: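 Compounds from DMSO stocks (final DMSO ≤1%) were added to liquid medium containing S. tritici spores to test inhibition of germination and mycelial growth. After 7 days, mycelium growth was read spectrometrically and inhibition derived from absorbance versus fungicide-free control wells.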

Botrytis cinerea [1] = assay: In vivo preventive test on Botrytis cinerea (grey mould); conditions: 500 ppm of active ingredient, preventive spray on gherkin or cabbage, evaluated 4 to 5 days after inoculation, read-out: efficacy
Outline: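 Preventive spray on cabbage or gherkin seedlings, with compound formulated in DMSO/acetone/Tween 80 and water-diluted, preceded spore inoculation by 24 hours. Cabbage was held 4 to 5 days at 20° C., 100% relative humidity; gherkin 4 to 5 days at 17° C., 90% relative humidity.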

Alternaria brassicae = assay: In vivo preventive test on Alternaria brassicae (leaf spot on radish or cabbage); conditions: 500 ppm of active ingredient, preventive spray on radish or cabbage, evaluated 3 to 4 days after inoculation, read-out: efficacy
Outline: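 Protective spray on young radish or cabbage: actives in water diluted from DMSO/acetone/Tween 80, with solvent-only controls. Leaves were challenged after 24 h with a spore suspension, and plants were held at 100% RH, 20 °C for 3 to 4 days.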

Pyrenophora teres [2] = assay: B-10. Pyrenophora teres in vitro cell test; type: cell-based; conditions: 144 h, 20 ppm of active ingredient, 6 days incubation, liquid culture, absorbance, read-out: efficacy (inhibition of fungal growth)
Outline: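 Liquid-culture assay on a P. teres spore suspension with compounds added to the medium from DMSO solutions, final DMSO ≤1%. Mycelium growth read spectrometrically after 6 days. Inhibition calculated from absorbance against untreated control wells.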

Pyrenophora teres [3] = assay: In vivo preventive test on Pyrenophora teres (net blotch on barley); conditions: 240 h, 500 ppm of active ingredient, preventive spray on barley, evaluated 10 days after inoculation, read-out: efficacy
Outline: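 Net blotch spores were sprayed onto barley leaves one day after foliar treatment with water-diluted DMSO/acetone/Tween 80 formulations (solvent-only controls). Plants were kept at 20° C: first 48 hours at 100% relative humidity, then 8 days at 70-80%.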

[4] = system: Colletotrichum lindemuthianum; assay: In vivo preventive test on Colletotrichum lindemuthianum (leaf spot on bean); conditions: 168 h, 500 ppm of active ingredient, preventive spray on bean, evaluated 7 days after inoculation, read-out: efficacy
Outline: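 Young bean plants sprayed with compound in DMSO/acetone/Tween 80 diluted in water; solvent-only controls. Inoculated 24 h later with C. lindemuthianum spore suspension, then kept 24 h at 20 °C/100% RH and 6 days at 20 °C/90% RH.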

Sphaerotheca fuliginea = assay: In vivo preventive test on Sphaerotheca fuliginea (powdery mildew on cucurbits); conditions: Podosphaera fuliginea, 192 h; 500 ppm of active ingredient; preventive spray on gherkin; evaluated 8 days after inoculation; read-out: efficacy
Outline: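 This is a preventive spray test on gherkin seedlings, with compound formulated in DMSO/acetone/Tween 80 in water and solvent-only controls. Spore inoculation followed one day after treatment. Incubation lasted 8 days at 20 °C, 70–80% RH.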

Botrytis cinerea [5] = assay: B-11. Botrytis cinerea in vitro cell test; type: cell-based; conditions: 144 h, 20 ppm of active ingredient, 6 days incubation, liquid culture, absorbance, read-out: efficacy (inhibition of fungal growth)
Outline: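 B. cinerea spores were grown in liquid culture with compound (DMSO ≤1% final). Mycelium growth was measured spectrometrically after 6 days, with inhibition taken as absorbance relative to untreated control wells.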

Alternaria alternata = Alternaria alternata in vitro cell test; type: cell-based; conditions: 120 h, 20 ppm of active ingredient, liquid culture, 5 days incubation, spectrometric measurement of mycelium growth, read-out: efficacy (inhibition of fungal growth)
Outline: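 Spectrometric readout of mycelial growth after 5-day incubation gauged compound effects on spore germination and growth of A. alternata in liquid medium. Compounds were delivered in DMSO at ≤1% final. Absorbance was compared with untreated controls to give inhibition.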

[6] = Measurement of Log P values by HPLC on reversed phase columns (EEC directive 79/831 Annex V.A8); type: physicochemical; conditions: reversed phase HPLC column, method [a]: LC-UV, acidic range, 0.1% formic acid in water and acetonitrile as eluent
Outline: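 Log P derived from retention on reversed-phase columns (EEC directive 79/831 Annex V.A8), LC-UV, acetonitrile gradient 10% to 95% against water containing 0.1% formic acid, 0.001 M ammonium acetate, or 0.1% phosphoric acid; several values per method separated by "+".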

[7] = system: Colletotrichum lindemuthianum; assay: B-8. Colletotrichum lindemuthianum in vitro cell test; type: cell-based; conditions: 144 h, 20 ppm of active ingredient, 6 days incubation, liquid culture, absorbance, read-out: efficacy (inhibition of fungal growth)
Outline: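 Liquid-culture germination/growth test: compounds in ≤1% final DMSO were added to spore-containing medium. Fungal growth was quantified spectrophotometrically after 6 days of incubation and expressed as inhibition versus untreated controls.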

Q: Which inhibition at 20 ppm (Septoria tritici) does the source give for `O=C(NC[C@H](F)c1ccc(Cl)cc1Cl)c1c(Oc2cccc(C(F)(F)F)c2)nnc2ccccc12` (racemic) [I-219] here?
A: 80 to 89%

Q: And the pest or weed control at 500 ppm (Botrytis cinerea [1])?
A: 90 to 100%

Q: What about the pest or weed control at 500 ppm (Alternaria brassicae) of the same molecule?
A: 90 to 100%

Q: What about the inhibition at 20 ppm (Pyrenophora teres [2]) of the same molecule?
A: 70 to 79%

Q: And the pest or weed control at 500 ppm (Pyrenophora teres [3])?
A: 90 to 100%

Q: What about the pest or weed control at 500 ppm [4] of the same molecule?
A: 90 to 100%

Q: And the pest or weed control at 500 ppm (Sphaerotheca fuliginea)?
A: 90 to 100%

Q: And the inhibition at 20 ppm (Botrytis cinerea [5])?
A: 90 to 100%

Q: And the inhibition at 20 ppm (Alternaria alternata)?
A: 80 to 89%

Q: And the chromatographic logP [6]?
A: 4.55

Q: Which inhibition at 20 ppm (Septoria tritici) does the source give for `Cc1cc(Cl)ccc1C(F)(F)CNC(=O)c1c(Oc2cccc(C(F)(F)F)c2)nnc2c1COCC2` [I-125] here?
A: 90 to 100%

Q: What about the pest or weed control at 500 ppm (Botrytis cinerea [1]) of the same molecule?
A: 90 to 100%

Q: What about the pest or weed control at 500 ppm (Alternaria brassicae) of the same molecule?
A: 90 to 100%

Q: What about the inhibition at 20 ppm (Pyrenophora teres [2]) of the same molecule?
A: 90 to 100%

Q: What about the pest or weed control at 500 ppm (Pyrenophora teres [3]) of the same molecule?
A: 70 to 79%

Q: And the pest or weed control at 500 ppm [4]?
A: 80 to 89%

Q: What about the pest or weed control at 500 ppm (Sphaerotheca fuliginea) of the same molecule?
A: 90 to 100%

Q: What about the inhibition at 20 ppm (Botrytis cinerea [5]) of the same molecule?
A: 90 to 100%

Q: And the inhibition at 20 ppm (Alternaria alternata)?
A: 90 to 100%

Q: What about the chromatographic logP [6] of the same molecule?
A: 3.85

Q: Which results are given for `Cc1ccc([C@@H](F)CNC(=O)c2c(Oc3cccc(C(F)(F)F)c3)nnc3c2OCC(C)(C)O3)c(C)c1` (racemic) [I-155]?
A: inhibition at 20 ppm (Septoria tritici): 90 to 100%; pest or weed control at 500 ppm (Alternaria brassicae): 90 to 100%; inhibition at 20 ppm (Pyrenophora teres [2]): 90 to 100%; pest or weed control at 500 ppm (Pyrenophora teres [3]): 90 to 100%; pest or weed control at 500 ppm [4]: 90 to 100%; inhibition at 20 ppm [7]: 90 to 100%; pest or weed control at 500 ppm (Sphaerotheca fuliginea): 90 to 100%; inhibition at 20 ppm (Botrytis cinerea [5]): 90 to 100%; inhibition at 20 ppm (Alternaria alternata): 90 to 100%; chromatographic logP [6]: 3.91
